Laboratory results published in patent publication US20240109839A1, “NOVEL COMPOUND EXHIBITING ANTI-INFLAMMATORY ACTIVITY AS P38 MAP KINASE INHIBITOR” (PRAZERTHERAPEUTICS INC., priority 2021, published 2024).

What was measured:
p38 alpha = p38 alpha (Homo sapiens, UniProt Q16539); experiment: Evaluation of inhibitory ability of p38a mitogen-activated protein kinase (MAPK); type: biochemical; settings: Serine/Threonine 15 peptide, 1 hour at room temperature, read at 445 nm and 520 nm
Method: To identify the ability to inhibit p38 MAPK, compounds 1 to 15 were diluted to identify the inhibitory effect according to concentration. Briefly, the compounds were diluted at concentrations of […], respectively, and then a peptide/kinase mixture (final 7.07-28.3 ng p38 alpha, 2 μM Serine/Threonine 15, 50 mM HEPES pH 7.0, 0.01% NaN3) and ATP solution were added. After carrying out a reaction at room temperature for 1 hour, a development reagent was added, and a reaction was performed again at room temperature for 1 hour.

Raw264.7 cells = experiment: Evaluation of nitric oxide inhibitory ability according to cellular inflammatory response (Griess reagent); type: cell-based; settings: 10 μM compound, 550 nm; for NO inhibition (%): 24 hours, 10 µM; for inhibition at 10 µM: Mus musculus, RAW264.7, 24 h, read-out: NO inhibition (%)
Method: In order to identify an inflammatory inhibitory effect upon inhibition of p-p38 MAPK, each compound was treated to Raw264.7 cells obtained by transforming macrophages into cancerous cells involved in the inflammatory response, so as to identify inhibition of inflammation due to inhibition of p38 MAPK. Briefly, Raw264.7 cells were cultured in Dulbecco's Modified Eagle Medium supplemented with 10% fetal bovine serum and penicillin/streptomycin (100 U/ml). Raw 264.7 cells were treated with 10 μM of compounds 1 to 15 according to the present disclosure in a petri dish respectively, followed by culture in a CO2 incubator for 24 hours.
After completion of cell culture under experimental conditions, the supernatant was obtained and centrifuged at 1200 rpm for 3 minutes. The centrifuged supernatant was mixed with Griess reagent (1% sulfanilamide, 0.1% N-(1-naphthyl)ethylenediamine dihydrochloride, 5% phosphoric acid) at 1:1 and then a reaction was performed for 10 minutes under shaded condition. The concentration of nitric oxide was determined at a wavelength of 550 nm.

p-p38 MAPK = biological target: T1, p-p38 MAPK (Mus musculus, UniProt P47811); experiment: Evaluation of p38 MAPK protein inhibitory ability in cells (p-p38 immunoblot); type: cell-based; settings: 10 μM compound, 24 hours; for p-p38 inhibition %: Raw264.7 cells, 10 µM; for inhibition at 10 µM: RAW264.7, Raw264.7 cells
T1 construct: endogenous in cells; host or cells: Raw264.7
T1 sequence (P47811 whole entry): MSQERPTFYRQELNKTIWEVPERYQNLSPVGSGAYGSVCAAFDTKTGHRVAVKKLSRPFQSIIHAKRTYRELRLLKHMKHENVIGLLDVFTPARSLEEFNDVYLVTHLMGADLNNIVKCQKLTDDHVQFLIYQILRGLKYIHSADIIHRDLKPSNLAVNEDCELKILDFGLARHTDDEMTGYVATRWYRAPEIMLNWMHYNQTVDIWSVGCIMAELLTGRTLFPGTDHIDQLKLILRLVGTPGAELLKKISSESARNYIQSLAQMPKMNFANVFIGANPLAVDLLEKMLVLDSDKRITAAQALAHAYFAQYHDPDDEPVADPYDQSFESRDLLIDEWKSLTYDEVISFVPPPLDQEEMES
Method: To identify inhibition of p-p38 MAPK, inhibition of p38 MAPK was identified after each compound was treated to Raw264.7 cells obtained by transforming macrophages into cancerous cells that cause inflammation according to p-p38 MAPK activity. Briefly, Raw264.7 cells were cultured in Dulbecco's modified Eagle Medium supplemented with 10% fetal bovine serum and penicillin/streptomycin (100 U/ml). Raw 264.7 cells were treated with 10 μM of compounds 1 to 15 according to the present disclosure in a petri dish respectively, followed by culture in a CO2 incubator for 24 hours. The effect of each compound on inhibition of p-p38 MAPK in cells was identified through protein immunoblot.
After completion of cell culture under the experimental conditions, washing was performed with cold phosphate buffered saline (PBS). The cells were then collected and centrifuged at 1200 rpm for 3 minutes. The precipitate was dissolved in cells with 2× sample buffer (1M Tris-HCl pH 6.8, 50% glycerol, 10% SDS, 2-mercaptoethanol, 1% bromophenol blue) and boiled at 100° C. for 10 minutes. The prepared protein samples were subjected to sodium dodecyl sulfate poly acrylamide gel electrophoresis and then transferred to PVDF membrane (Millipore). Blocking was performed in a 5% bovine serum albumin (BSA, RMbio) solution for a specific coupling reaction between the protein on the PVDF membrane and antibody. The BSA solution was then discarded, and the membrane was washed with PBS-T (0.5% tween 20 in PBS). The coupling reaction between the protein on the membrane and antibody was carried out overnight at 4° C., followed by washing again with PBS-T. Finally, a secondary antibody (Cell signaling Technology) conjugated with horseradish peroxidase (HRP) was diluted in PBS-T, and a reaction was carried out at room temperature for 2 hours. Luminata Forte HRP substrate (Millipore) was used to determine the protein amount on the membrane.

p38 alpha, sequence (Q16539 whole entry): as the sequence (P47811 whole entry) above, with H48L, A263T counted along it

Which IC50 (p38 alpha) does the source give for `Cc1ccc(C(=O)NC2CC2)cc1-c1ccc(C(=O)C2CCC(OCCO)C2)cc1` (stereo not drawn) [11 (anti isomer), N-cyclopropyl-4′-(3-(2-hydroxyethoxy)cyclopentanecarbonyl)-6-methyl-[1,1′-biphenyl]-3-carboxamide] here?
The IC50 was 58.4 nM.

And the “NO inhibition (%)” value (Raw264.7 cells)?
Its value is 11.0%.

And the p-p38 inhibition % (p-p38 MAPK)?
The p-p38 inhibition % was 64.1%.

With `Cc1ccc(C(=O)NC2CC2)cc1-c1ccc(C(=O)C2CCC(OCCO)C2)cc1` (stereo not drawn) [11 (syn isomer), N-cyclopropyl-4′-(3-(2-hydroxyethoxy)cyclopentanecarbonyl)-6-methyl-[1,1′-biphenyl]-3-carboxamide] as the compound, how does the IC50 (p38 alpha) read?
The IC50 was 27.8 nM.

And the “NO inhibition (%)” value (Raw264.7 cells)?
Its value is 30.6%.

What about the p-p38 inhibition % (p-p38 MAPK) of the same compound?
The p-p38 inhibition % was 41.9%.

How did the IC50 (p38 alpha) turn out when `Cc1ccc(C(=O)NC2CC2)cc1-c1ccc(C(=O)C(C)(C)O)cc1` [Compound 1, N-cyclopropyl-4′-(2-hydroxy-2-methylpropanoyl)-6-methyl-[1,1′-biphenyl]-3-carboxamide] was run?
Its IC50 is 71.8 nM.

`COCCC(C)C(=O)c1ccc(-c2cc(C(=O)NC3CC3)ccc2C)cc1` (stereo not drawn) [Compound 2, N-cyclopropyl-4′-(4-methoxy-2-methylbutanoyl)-6-methyl-[1,1′-biphenyl]-3-carboxamide] was tested. Which IC50 (p38 alpha) did it give?
The IC50 was 21.9 nM.

Which IC50 (p38 alpha) does the source give for `COCCCC(C)C(=O)c1ccc(-c2cc(C(=O)NC3CC3)ccc2C)cc1` (stereo not drawn) [Compound 3, N-cyclopropyl-4′-(5-methoxy-2-methylpentanoyl)-6-methyl-[1,1′-biphenyl]-3-carboxamide] here?
Its IC50 is 50.7 nM.

What does the source list for `Cc1ccc(C(=O)NC2CC2)cc1-c1ccc(C(=O)C2CC2)cc1` [Compound 4, 4′-(cyclopropanecarbonyl)-N-cyclopropyl-6-methyl-[1,1′-biphenyl]-3-carboxamide]?
IC50 (p38 alpha): 39.2 nM; inhibition at 10 µM (Raw264.7 cells): 26%; inhibition at 10 µM (p-p38 MAPK): 20.9%

For `Cc1ccc(C(=O)NC2CC2)cc1-c1ccc(C(=O)C2CCC2)cc1` [Compound 5, 4′-(cyclobutanecarbonyl)-N-cyclopropyl-6-methyl-[1,1′-biphenyl]-3-carboxamide], which IC50 (p38 alpha) is on record?
The IC50 was 86.7 nM.

What about the inhibition at 10 µM (Raw264.7 cells) of the same compound?
Its inhibition at 10 µM is 11.9%.

And the inhibition at 10 µM (p-p38 MAPK)?
Its inhibition at 10 µM is 80.4%.

`Cc1ccc(C(=O)NC2CC2)cc1-c1ccc(C(=O)C2CCCC2)cc1` [Compound 6, 4′-(cyclopentanecarbonyl)-N-cyclopropyl-6-methyl-[1,1′-biphenyl]-3-carboxamide] was tested. Which IC50 (p38 alpha) did it give?
Its IC50 is 128 nM.

And the inhibition at 10 µM (Raw264.7 cells)?
Its inhibition at 10 µM is 24%.

What about the inhibition at 10 µM (p-p38 MAPK) of the same compound?
The inhibition at 10 µM was 76.2%.

Which IC50 (p38 alpha) does the source give for `Cc1ccc(C(=O)NC2CC2)cc1-c1ccc(C(=O)C2CCCCC2)cc1` [Compound 7, 4′-(cyclohexanecarbonyl)-N-cyclopropyl-6-methyl-[1,1′-biphenyl]-3-carboxamide] here?
Its IC50 is 72.6 nM.

And the inhibition at 10 µM (Raw264.7 cells)?
The inhibition at 10 µM was 15.5%.

What about the inhibition at 10 µM (p-p38 MAPK) of the same compound?
The inhibition at 10 µM was 87.6%.

For `Cc1ccc(C(=O)NC2CC2)cc1-c1ccc(C(=O)C2CCCCCC2)cc1` [Compound 8, 4′-(cycloheptanecarbonyl)-N-cyclopropyl-6-methyl-[1,1′-biphenyl]-3-carboxamide], which IC50 (p38 alpha) is on record?
Its IC50 is 46.6 nM.

And the inhibition at 10 µM (Raw264.7 cells)?
The inhibition at 10 µM was 43.6%.

And the inhibition at 10 µM (p-p38 MAPK)?
Its inhibition at 10 µM is 83%.

How did the IC50 (p38 alpha) turn out when `Cc1ccc(C(=O)NC2CC2)cc1-c1ccc(C(=O)C2CC=CC2)cc1` [Compound 9, 4′-(cyclopent-3-enecarbonyl)-N-cyclopropyl-6-methyl-[1,1′-biphenyl]-3-carboxamide] was run?
Its IC50 is 46.5 nM.

And the inhibition at 10 µM (Raw264.7 cells)?
Its inhibition at 10 µM is 21.1%.

What about the inhibition at 10 µM (p-p38 MAPK) of the same compound?
Its inhibition at 10 µM is 81.7%.

`Cc1ccc(C(=O)NC2CC2)cc1-c1ccc(C(=O)C2CCC(O)C2)cc1` (stereo not drawn) [Compound 10, N-cyclopropyl-4′-(3-hydroxycyclopentanecarbonyl)-6-methyl-[1,1′-biphenyl]-3-carboxamide] was tested. Which IC50 (p38 alpha) did it give?
Its IC50 is 22.5 nM.

And the inhibition at 10 µM (Raw264.7 cells)?
The inhibition at 10 µM was 11.1%.

What about the inhibition at 10 µM (p-p38 MAPK) of the same compound?
The inhibition at 10 µM was 44.7%.

Which IC50 (p38 alpha) does the source give for `COCCOC1CCC(C(=O)c2ccc(-c3cc(C(=O)NC4CC4)ccc3C)cc2)C1` (stereo not drawn) [Compound 12, N-cyclopropyl-4′-(3-(2-methoxyethoxy)cyclopentane-1-carbonyl)-6-methyl-[1,1′-biphenyl]-3-carboxamide] here?
The IC50 was 21.8 nM.

With `Cc1ccc(C(=O)NC2CC2)cc1-c1ccc(C(=O)C(C)O)cc1` (stereo not drawn) [Compound 13, N-cyclopropyl-4′-(2-hydroxypropanoyl)-6-methyl-[1,1′-biphenyl]-3-carboxamide] as the compound, how does the IC50 (p38 alpha) read?
Its IC50 is 50.8 nM.

Which IC50 (p38 alpha) does the source give for `Cc1ccc(C(=O)NC2CC2)cc1-c1ccc(C(=O)C2CCNC2)cc1` (stereo not drawn) [Compound 14, N-cyclopropyl-6-methyl-4′-(pyrrolidine-3-carbonyl)-[1,1′-biphenyl]-3-carboxamide] here?
The IC50 was 126 nM.

What about the inhibition at 10 µM (p-p38 MAPK) of the same compound?
The inhibition at 10 µM was 88.6%.

Which IC50 (p38 alpha) does the source give for `COCCN1CCC(C(=O)c2ccc(-c3cc(C(=O)NC4CC4)ccc3C)cc2)C1` (stereo not drawn) [Compound 15, N-cyclopropyl-4′-(1-(2-methoxyethyl)pyrrolidine-3-carbonyl)-6-methyl-[1,1′-biphenyl]-3-carboxamide] here?
Its IC50 is 158 nM.

And the inhibition at 10 µM (p-p38 MAPK)?
Its inhibition at 10 µM is 79.2%.
